Where two headings read alike, the source gives them in different places.
Columns and labels:
KLE = assay: cell growth / viable cell count in ERBB4-overexpressing, BTK-negative cell line; type: cell-based, human; set-up: % Survival: dose or concentration left out as unconfirmed
COV318 = assay: as above; type: cell-based, human
YES1 [1] = molecular target: T1, YES1 (Homo sapiens, UniProt P07947); assay: NAPPA array kinase autophosphorylation assay; type: biochemical; conditions: Yes1 (second entry), DMSO = 100
T1 construct: made in house; host or cells: human cell-free coupled transcription-translation (1-Step Human Coupled IVT), on the slide

H716 = assay: cell growth / viable cell count in ERBB4-overexpressing, BTK-negative cell line; type: cell-based, human
BCRABL = assay: NAPPA array kinase autophosphorylation assay; type: biochemical, human; conditions: DMSO = 100
ERBB4 = ERBB4 (Homo sapiens, UniProt Q15303); assay: radioactive kinase assay with purified kinase; type: biochemical; conditions: 1 uM, radioactive ATP (FIG. 3A)
Description: (§1) First, radioactive kinase assays were performed with purified protein kinases incubated with radioactive ATP and increasing concentrations of kinase inhibitors. The kinase activity was measured through the levels of radioactive phosphorylation present in each kinase.

OVKATE = conditions: 1 uM, 7 days, Trypan blue exclusion, vs DMSO
DYRK2 = molecular target: T2, DYRK2 (Homo sapiens, UniProt Q92630); assay: NAPPA array kinase autophosphorylation assay; type: biochemical; conditions: DMSO = 100
T2 construct: made in house; host or cells: human cell-free coupled transcription-translation (1-Step Human Coupled IVT), on the slide
Description: (§2) Protein microarrays were generated using NAPPA (Nucleic acid programmable protein array) methodology, which permits the use of freshly expressed proteins for functional assays (FIG. 1). In NAPPA, cDNAs coding for the target of interest are cloned into an expression vector, which generates a fusion (Halo Tag, GST, etc.) to the target, and spotted onto a glass slide. Then to each spot, a HeLa cell in vitro transcription-translation reagent is added, whereby the fusion gene is transcribed into mRNA and translated. The nascent proteins are captured to the slide with antibody to the fusion partner (i.e., HaloTag-ligand, α-GST antibody) that is spotted adjacent to the DNA during the manufacture of the array. This method allows for up to thousands of protein targets to be arrayed. NAPPA microarrays can be expressed using an in vitro transcription and translation system (IVTT), and the anti-tag antibody captures newly synthesized proteins. Following expression, the microarrays were treated with phosphatase to remove any phosphorylation that occurred during the expression of the proteins.
(§3) De-phosphorylated arrays were then incubated with kinase buffer containing various concentrations of ATP and/or kinase inhibitors. The kinase activity was measured as end point assay using anti-phopho tyrosine antibody linked to cy3 as the detecting agent (FIG. 2). The data was normalized using positive control features present in each array.
(§4) NAPPA kinase microarrays we generated with virtually all protein-tyrosine kinases from the human genome. The coding sequence for each tyrosine kinase was clone into an expression plasmid and immobilized on the microarray surface, with one protein kinase per feature. After the microarray was expressed, any phosphorylation that occurred during the expression step was removed by a treatment with lambda phosphatase.
(§5) Unphosphorylated microarrays were then incubated with a kinase buffer (25 mM Tris-HCl (pH 7.5), 5 mM beta-glycerophosphate, 2 mM dithiothreitol (DTT), 0.1 mM Na3VO4, 10 mM MgCl2) supplemented with […] and/or kinase inhibitors (concentration ranging from 0-10 uM). The kinase autophosphorylation activity was measured through the levels of phosphorylation present in each feature and was detected by phospho-tyrosine antibody. […] Staurosporine is a pan kinase inhibitor used as a control.
(§6) NAPPA arrays suitable for measuring the activity of protein kinases and evaluating the selectivity of kinase inhibitors were produced using a variation of the published protocol (Proteomics Clin Appl. 2013 June; 7(5-6):372-7.). Briefly, NAPPA printing mix was prepared with plasmid DNA coding for genes of interest, anti-flag antibody, cross-linker and poly-lysine. Samples were agitated for 90 minutes at 1200 rpm at RT and printed in quadruplicate in aminopropyltriethoxysilane coated glass slides.
(§7) Arrays were stored in an airtight container at room temperature until use.

Tec = molecular target: T3, Tec (Homo sapiens, UniProt P42680); assay: NAPPA array kinase autophosphorylation assay; type: biochemical; conditions: DMSO = 100
T3 construct: made in house; host or cells: human cell-free coupled transcription-translation (1-Step Human Coupled IVT), on the slide
Description: as §2, §3, §4, §5, §6, §7

EPHA3 = molecular target: T4, EPHA3 (Homo sapiens, UniProt P29320); assay: NAPPA array kinase autophosphorylation assay; type: biochemical; conditions: DMSO = 100
T4 construct: made in house; host or cells: human cell-free coupled transcription-translation (1-Step Human Coupled IVT), on the slide
Description: as §2, §3, §4, §5, §6, §7

SYK = SYK (Homo sapiens, UniProt P43405); assay: NAPPA array kinase autophosphorylation assay; type: biochemical; conditions: DMSO = 100
Description: as §2, §3, §4, §5, §6, §7

EPHA1 = molecular target: T5, EPHA1 (Homo sapiens, UniProt P21709); assay: NAPPA array kinase autophosphorylation assay; type: biochemical; conditions: DMSO = 100
T5 construct: made in house; host or cells: human cell-free coupled transcription-translation (1-Step Human Coupled IVT), on the slide
Description: as §2, §3, §4, §5, §6, §7

FGFR4 = molecular target: T6, FGFR4 (Homo sapiens, UniProt P22455); assay: NAPPA array kinase autophosphorylation assay; type: biochemical; conditions: DMSO = 100
T6 construct: made in house; host or cells: human cell-free coupled transcription-translation (1-Step Human Coupled IVT), on the slide
Description: as §2, §3, §4, §5, §6, §7

TNK2 = molecular target: T7, TNK2 (Homo sapiens, UniProt Q07912); assay: NAPPA array kinase autophosphorylation assay; type: biochemical; conditions: DMSO = 100
T7 construct: made in house; host or cells: human cell-free coupled transcription-translation (1-Step Human Coupled IVT), on the slide
Description: as §2, §3, §4, §5, §6, §7

ERBB3/HER3 = molecular target: T8, ERBB3/HER3 (Homo sapiens, UniProt P21860); assay: NAPPA array kinase autophosphorylation assay; type: biochemical; conditions: DMSO = 100
T8 construct: made in house; host or cells: human cell-free coupled transcription-translation (1-Step Human Coupled IVT), on the slide
Description: as §2, §3, §4, §5, §6, §7

ERBB4/HER4 = molecular target: T9, ERBB4/HER4 (Homo sapiens, UniProt Q15303); assay: NAPPA array kinase autophosphorylation assay; type: biochemical; conditions: DMSO = 100
T9 construct: made in house; host or cells: human cell-free coupled transcription-translation (1-Step Human Coupled IVT), on the slide
Description: as §2, §3, §4, §5, §6, §7

EGFR/ERBB1 = molecular target: T10, EGFR/ERBB1 (Homo sapiens, UniProt P00533); assay: NAPPA array kinase autophosphorylation assay; type: biochemical; conditions: DMSO = 100
T10 construct: made in house; host or cells: human cell-free coupled transcription-translation (1-Step Human Coupled IVT), on the slide
Description: as §2, §3, §4, §5, §6, §7

TESK2 = molecular target: T11, TESK2 (Homo sapiens, UniProt Q96S53); assay: NAPPA array kinase autophosphorylation assay; type: biochemical; conditions: DMSO = 100
T11 construct: made in house; host or cells: human cell-free coupled transcription-translation (1-Step Human Coupled IVT), on the slide
Description: as §2, §3, §4, §5, §6, §7

HCK = molecular target: T12, HCK (Homo sapiens, UniProt P08631); assay: NAPPA array kinase autophosphorylation assay; type: biochemical; conditions: DMSO = 100
T12 construct: made in house; host or cells: human cell-free coupled transcription-translation (1-Step Human Coupled IVT), on the slide
Description: as §2, §3, §4, §5, §6, §7

FGFR1 = molecular target: T13, FGFR1 (Homo sapiens, UniProt P11362); assay: NAPPA array kinase autophosphorylation assay; type: biochemical; conditions: DMSO = 100
T13 construct: made in house; host or cells: human cell-free coupled transcription-translation (1-Step Human Coupled IVT), on the slide
Description: as §2, §3, §4, §5, §6, §7

EPHA7 = molecular target: T14, EPHA7 (Homo sapiens, UniProt Q15375); assay: NAPPA array kinase autophosphorylation assay; type: biochemical; conditions: DMSO = 100
T14 construct: made in house; host or cells: human cell-free coupled transcription-translation (1-Step Human Coupled IVT), on the slide
Description: as §2, §3, §4, §5, §6, §7

H146 = assay: cell growth / viable cell count in ERBB4-overexpressing, BTK-negative cell line; type: cell-based, human
BTK [2] = molecular target: T15, BTK (Homo sapiens, UniProt Q06187); conditions: DMSO = 100
Description: as §2, §3, §4, §5
as §6, with “Samples were agitated for 90 minutes at 1200 rpm at RT and printed in quadruplicate in aminopropyltriethoxysilane coated glass slides.” left out

Abl1 = Abl1 (Homo sapiens, UniProt P00519); conditions: DMSO = 100
Description: as §2, §3, §4, §5
as §6, with “Samples were agitated for 90 minutes at 1200 rpm at RT and printed in quadruplicate in aminopropyltriethoxysilane coated glass slides.” left out

responsive cell lines = assay: cell based assays, responsive cell lines; set-up: species or system human
YES1 [3] = molecular target: T1, YES1; assay: NAPPA array kinase autophosphorylation assay; type: biochemical; conditions: DMSO = 100
COV434 = conditions: 1 uM, 7 days, Trypan blue exclusion, vs DMSO
H661 = assay: cell growth / viable cell count in ERBB4-overexpressing, BTK-negative cell line; type: cell-based, human
H522 = assay: as above; type: cell-based, human
OVSAHO = conditions: 1 uM, 7 days, Trypan blue exclusion, vs DMSO
1321N1 = assay: cell growth / viable cell count in ERBB4-overexpressing, BTK-negative cell line; type: cell-based, human
HEC59 = assay: as above; type: cell-based, human; set-up: % Survival: dose or concentration left out as unconfirmed
BTK [4] = molecular target: T15, BTK; conditions: 1 uM, radioactive ATP (FIG. 3A)
Description: as §1

[5] = 0, 1 nM, 10 nM, 100 nM, 1 uM or 10 uM for 7 days
[6] = 1 uM, 7 days, Trypan blue exclusion, vs DMSO
[7] = percentage of viable cells after a 24-hour treatment of 1 nM ibrutinib

T1 sequence (P07947 whole entry): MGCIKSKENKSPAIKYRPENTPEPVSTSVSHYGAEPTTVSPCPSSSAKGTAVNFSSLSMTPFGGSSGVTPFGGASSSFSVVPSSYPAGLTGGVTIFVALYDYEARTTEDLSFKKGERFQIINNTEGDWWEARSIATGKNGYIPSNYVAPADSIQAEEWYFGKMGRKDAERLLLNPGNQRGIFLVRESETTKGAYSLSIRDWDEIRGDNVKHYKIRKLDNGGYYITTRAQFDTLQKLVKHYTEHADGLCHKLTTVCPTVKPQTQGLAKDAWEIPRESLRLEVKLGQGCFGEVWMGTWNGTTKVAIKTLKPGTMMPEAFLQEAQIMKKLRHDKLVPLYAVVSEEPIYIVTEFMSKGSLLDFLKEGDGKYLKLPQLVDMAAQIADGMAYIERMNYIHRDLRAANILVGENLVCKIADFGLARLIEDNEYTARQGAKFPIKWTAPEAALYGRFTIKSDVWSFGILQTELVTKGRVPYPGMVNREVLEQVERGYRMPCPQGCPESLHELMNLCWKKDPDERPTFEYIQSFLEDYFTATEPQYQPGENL
T15 sequence (Q06187 whole entry): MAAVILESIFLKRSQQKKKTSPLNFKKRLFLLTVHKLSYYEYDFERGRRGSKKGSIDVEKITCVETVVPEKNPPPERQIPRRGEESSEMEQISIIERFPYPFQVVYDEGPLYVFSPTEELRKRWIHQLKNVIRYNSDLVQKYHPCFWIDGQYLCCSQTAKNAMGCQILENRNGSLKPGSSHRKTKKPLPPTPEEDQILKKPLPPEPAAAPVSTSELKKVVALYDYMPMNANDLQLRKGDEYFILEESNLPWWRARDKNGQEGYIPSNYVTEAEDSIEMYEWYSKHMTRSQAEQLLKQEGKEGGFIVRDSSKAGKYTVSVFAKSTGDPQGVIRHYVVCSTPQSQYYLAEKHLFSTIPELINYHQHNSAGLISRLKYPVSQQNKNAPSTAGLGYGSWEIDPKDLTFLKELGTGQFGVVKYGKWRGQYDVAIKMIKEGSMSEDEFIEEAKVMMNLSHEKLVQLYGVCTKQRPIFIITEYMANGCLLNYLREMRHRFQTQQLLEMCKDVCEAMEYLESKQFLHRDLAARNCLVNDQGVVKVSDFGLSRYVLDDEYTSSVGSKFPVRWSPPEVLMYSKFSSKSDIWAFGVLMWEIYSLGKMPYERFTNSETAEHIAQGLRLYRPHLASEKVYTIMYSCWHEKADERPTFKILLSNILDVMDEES
T12 sequence (P08631 whole entry): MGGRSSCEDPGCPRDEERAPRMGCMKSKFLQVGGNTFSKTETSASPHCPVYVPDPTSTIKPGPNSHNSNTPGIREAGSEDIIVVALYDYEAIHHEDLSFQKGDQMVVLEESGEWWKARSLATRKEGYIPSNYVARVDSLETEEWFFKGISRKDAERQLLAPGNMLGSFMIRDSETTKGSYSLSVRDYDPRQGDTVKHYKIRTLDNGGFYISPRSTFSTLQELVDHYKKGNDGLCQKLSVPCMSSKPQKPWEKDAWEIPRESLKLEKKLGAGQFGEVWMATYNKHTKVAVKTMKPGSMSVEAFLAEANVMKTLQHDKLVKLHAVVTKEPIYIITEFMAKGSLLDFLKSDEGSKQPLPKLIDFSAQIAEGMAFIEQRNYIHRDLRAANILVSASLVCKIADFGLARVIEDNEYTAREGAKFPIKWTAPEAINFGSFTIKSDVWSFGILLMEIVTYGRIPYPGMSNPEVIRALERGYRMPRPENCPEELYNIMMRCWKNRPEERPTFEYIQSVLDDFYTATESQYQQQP
T6 sequence (P22455 22-802): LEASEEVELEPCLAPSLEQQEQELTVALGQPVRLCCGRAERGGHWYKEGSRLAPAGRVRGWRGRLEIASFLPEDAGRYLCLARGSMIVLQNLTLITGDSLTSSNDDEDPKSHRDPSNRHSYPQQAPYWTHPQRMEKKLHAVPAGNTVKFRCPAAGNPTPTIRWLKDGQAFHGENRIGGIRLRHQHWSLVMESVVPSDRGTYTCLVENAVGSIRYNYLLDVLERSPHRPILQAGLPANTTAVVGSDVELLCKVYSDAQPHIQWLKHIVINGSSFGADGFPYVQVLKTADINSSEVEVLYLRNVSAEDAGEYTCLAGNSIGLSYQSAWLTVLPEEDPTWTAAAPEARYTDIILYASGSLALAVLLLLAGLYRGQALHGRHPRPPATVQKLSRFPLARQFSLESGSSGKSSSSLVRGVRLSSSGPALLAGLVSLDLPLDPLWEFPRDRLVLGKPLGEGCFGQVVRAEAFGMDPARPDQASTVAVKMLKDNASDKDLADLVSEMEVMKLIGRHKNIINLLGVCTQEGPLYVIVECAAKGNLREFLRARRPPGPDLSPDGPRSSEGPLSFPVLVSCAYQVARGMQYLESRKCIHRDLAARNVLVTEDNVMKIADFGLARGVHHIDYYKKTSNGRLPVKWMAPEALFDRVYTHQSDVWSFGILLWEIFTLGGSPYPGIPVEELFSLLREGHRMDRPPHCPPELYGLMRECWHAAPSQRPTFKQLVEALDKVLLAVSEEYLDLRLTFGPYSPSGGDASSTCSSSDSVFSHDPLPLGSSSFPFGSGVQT
T4 sequence (P29320 21-983): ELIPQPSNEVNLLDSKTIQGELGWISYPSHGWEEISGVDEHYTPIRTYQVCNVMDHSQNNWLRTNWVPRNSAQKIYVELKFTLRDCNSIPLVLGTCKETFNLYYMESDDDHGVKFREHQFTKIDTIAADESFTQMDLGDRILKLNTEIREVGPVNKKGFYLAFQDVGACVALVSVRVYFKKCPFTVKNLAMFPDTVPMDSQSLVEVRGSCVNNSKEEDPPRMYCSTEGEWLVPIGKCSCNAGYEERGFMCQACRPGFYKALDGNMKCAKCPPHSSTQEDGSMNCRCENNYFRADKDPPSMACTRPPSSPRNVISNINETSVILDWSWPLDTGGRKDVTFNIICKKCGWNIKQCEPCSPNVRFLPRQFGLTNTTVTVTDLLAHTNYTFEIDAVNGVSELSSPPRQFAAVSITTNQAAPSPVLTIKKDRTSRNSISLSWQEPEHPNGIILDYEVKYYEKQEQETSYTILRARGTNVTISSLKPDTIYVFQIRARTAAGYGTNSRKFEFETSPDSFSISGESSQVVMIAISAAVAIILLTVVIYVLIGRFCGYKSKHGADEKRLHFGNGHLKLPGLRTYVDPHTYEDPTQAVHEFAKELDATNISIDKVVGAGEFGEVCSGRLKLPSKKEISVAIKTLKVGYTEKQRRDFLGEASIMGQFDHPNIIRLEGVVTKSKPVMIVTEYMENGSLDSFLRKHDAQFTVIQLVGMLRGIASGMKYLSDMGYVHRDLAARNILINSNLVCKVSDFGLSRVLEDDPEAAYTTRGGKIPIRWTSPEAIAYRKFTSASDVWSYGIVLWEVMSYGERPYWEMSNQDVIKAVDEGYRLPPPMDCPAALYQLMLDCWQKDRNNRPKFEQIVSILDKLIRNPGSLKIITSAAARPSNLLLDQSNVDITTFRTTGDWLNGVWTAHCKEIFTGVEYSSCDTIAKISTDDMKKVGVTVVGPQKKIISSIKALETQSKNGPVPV
T14 sequence (Q15375 28-998): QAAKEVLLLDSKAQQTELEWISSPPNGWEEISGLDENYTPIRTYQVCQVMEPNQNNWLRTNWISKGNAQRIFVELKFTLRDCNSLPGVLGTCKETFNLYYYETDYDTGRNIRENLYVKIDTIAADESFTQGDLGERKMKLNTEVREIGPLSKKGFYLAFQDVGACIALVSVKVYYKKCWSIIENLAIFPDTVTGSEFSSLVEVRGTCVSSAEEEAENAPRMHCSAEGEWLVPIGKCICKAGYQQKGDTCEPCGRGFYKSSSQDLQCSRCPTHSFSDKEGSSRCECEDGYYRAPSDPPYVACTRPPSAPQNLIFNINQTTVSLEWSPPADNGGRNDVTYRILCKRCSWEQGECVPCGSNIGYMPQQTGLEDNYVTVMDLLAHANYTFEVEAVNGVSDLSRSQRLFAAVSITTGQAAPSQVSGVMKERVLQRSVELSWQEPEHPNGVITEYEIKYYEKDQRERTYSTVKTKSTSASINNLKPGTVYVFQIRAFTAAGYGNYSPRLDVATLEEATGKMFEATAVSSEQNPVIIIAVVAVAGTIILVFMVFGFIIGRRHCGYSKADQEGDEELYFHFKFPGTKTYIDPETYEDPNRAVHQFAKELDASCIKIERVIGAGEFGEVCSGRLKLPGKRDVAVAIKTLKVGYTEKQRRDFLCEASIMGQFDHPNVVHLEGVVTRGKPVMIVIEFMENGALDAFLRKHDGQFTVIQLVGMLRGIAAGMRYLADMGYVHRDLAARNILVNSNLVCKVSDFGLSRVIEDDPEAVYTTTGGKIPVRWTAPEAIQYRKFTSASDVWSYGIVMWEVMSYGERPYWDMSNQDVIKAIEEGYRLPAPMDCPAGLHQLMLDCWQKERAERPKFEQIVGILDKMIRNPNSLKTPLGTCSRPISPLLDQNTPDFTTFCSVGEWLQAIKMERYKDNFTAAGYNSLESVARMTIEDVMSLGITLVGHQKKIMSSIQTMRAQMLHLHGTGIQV
T11 sequence (Q96S53 whole entry): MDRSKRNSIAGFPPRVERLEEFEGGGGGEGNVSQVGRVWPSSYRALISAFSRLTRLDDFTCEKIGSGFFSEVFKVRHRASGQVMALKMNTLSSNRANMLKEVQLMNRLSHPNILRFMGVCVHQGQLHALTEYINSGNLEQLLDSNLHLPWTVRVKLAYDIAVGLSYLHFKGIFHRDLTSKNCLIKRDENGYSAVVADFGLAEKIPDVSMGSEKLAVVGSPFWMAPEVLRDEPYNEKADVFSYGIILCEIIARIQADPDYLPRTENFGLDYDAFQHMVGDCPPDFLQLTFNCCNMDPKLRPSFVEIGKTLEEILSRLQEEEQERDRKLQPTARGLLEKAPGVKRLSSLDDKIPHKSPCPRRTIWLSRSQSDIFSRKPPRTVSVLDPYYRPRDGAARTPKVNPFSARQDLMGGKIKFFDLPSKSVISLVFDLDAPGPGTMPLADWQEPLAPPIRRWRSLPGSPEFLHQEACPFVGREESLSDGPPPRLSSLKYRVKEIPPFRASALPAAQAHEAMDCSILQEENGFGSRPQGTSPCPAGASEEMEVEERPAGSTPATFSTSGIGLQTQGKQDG

Ibrutinib
sensitivity of cell line (KLE; [5]): very sensitive
growth inhibition rate (KLE; [6]): 73%
% Survival (KLE; percentage of viable cells after ibrutinib): 27.2%
sensitivity of cell line (COV318; [5]): apparently resistant
growth inhibition rate (COV318; [6]): 8%
% Survival (COV318; [7]): 91.5%
kinase activity (%) (YES1 [1]; 0.1 uM Ibrutinib): 101.6%
kinase activity (%) (YES1 [1]; 1 uM Ibrutinib): 97.6%
sensitivity of cell line (H716; [5]): very sensitive
growth inhibition rate (H716; [6]): 75%
% Survival (H716; [7]): 25.5%
kinase activity (%) (BCRABL; 0.1 uM Ibrutinib): 92.0%
kinase activity (%) (BCRABL; 1 uM Ibrutinib): 93.1%
activity inhibited (ERBB4): more than 80%
growth inhibition rate (OVKATE): 45%
kinase activity (%) (DYRK2; 0.1 uM Ibrutinib): 97.3%
kinase activity (%) (DYRK2; 1 uM Ibrutinib): 82.3%
kinase activity (%) (Tec; 0.1 uM Ibrutinib): 68.7%
kinase activity (%) (Tec; 1 uM Ibrutinib): 62.0%
kinase activity (%) (EPHA3; 0.1 uM Ibrutinib): 89.1%
kinase activity (%) (EPHA3; 1 uM Ibrutinib): 101.3%
kinase activity (%) (SYK; 0.1 uM Ibrutinib): 90.5%
kinase activity (%) (SYK; 1 uM Ibrutinib): 109.7%
kinase activity (%) (EPHA1; 0.1 uM Ibrutinib): 87.2%
kinase activity (%) (EPHA1; 1 uM Ibrutinib): 99.1%
kinase activity (%) (FGFR4; 0.1 uM Ibrutinib): 81.5%
kinase activity (%) (FGFR4; 1 uM Ibrutinib): 99.1%
kinase activity (%) (TNK2; 0.1 uM Ibrutinib): 99.9%
kinase activity (%) (TNK2; 1 uM Ibrutinib): 86.9%
kinase activity (%) (ERBB3/HER3; 0.1 uM Ibrutinib): 100.0%
kinase activity (%) (ERBB3/HER3; 1 uM Ibrutinib): 206.1%
kinase activity (%) (ERBB4/HER4; 0.1 uM Ibrutinib): 67.1%
kinase activity (%) (ERBB4/HER4; 1 uM Ibrutinib): 44.1%
kinase activity (%) (EGFR/ERBB1; 0.1 uM Ibrutinib): 81.2%
kinase activity (%) (EGFR/ERBB1; 1 uM Ibrutinib): 89.7%
kinase activity (%) (TESK2; 0.1 uM Ibrutinib): 85.8%
kinase activity (%) (TESK2; 1 uM Ibrutinib): 83.5%
kinase activity (%) (HCK; 0.1 uM Ibrutinib): 102.1%
kinase activity (%) (HCK; 1 uM Ibrutinib): 105.0%
kinase activity (%) (FGFR1; 0.1 uM Ibrutinib): 98.8%
kinase activity (%) (FGFR1; 1 uM Ibrutinib): 105.8%
kinase activity (%) (EPHA7; 0.1 uM Ibrutinib): 92.3%
kinase activity (%) (EPHA7; 1 uM Ibrutinib): 94.9%
growth inhibition rate (H146; H146, 1 uM, 7 days, Trypan blue exclusion, vs DMSO): 0%
% Survival (H146; H146, percentage of viable cells after a 24-hour treatment of 1 nM ibrutinib): 100.0%
sensitivity of cell line (H146; H416, 0, 1 nM, 10 nM, 100 nM, 1 uM or 10 uM for 7 days): apparently resistant
kinase activity (%) (BTK [2]; 0.1 uM Ibrutinib): 38.3%
kinase activity (%) (BTK [2]; 1 uM Ibrutinib): 5.5%
kinase activity (%) (Abl1; 0.1 uM Ibrutinib): 101.5%
kinase activity (%) (Abl1; 1 uM Ibrutinib): 104.3%
inhibition in the responsive cell lines (responsive cell lines): 60-75%
kinase activity (%) (YES1 [3]; 0.1 uM Ibrutinib): 99.3%
kinase activity (%) (YES1 [3]; 1 uM Ibrutinib): 90.9%
growth inhibition rate (COV434): 15%
sensitivity of cell line (H661; [5]): very sensitive
growth inhibition rate (H661; [6]): 72%
% Survival (H661; [7]): 28.2%
sensitivity of cell line (H522; [5]): very sensitive
growth inhibition rate (H522; [6]): 60%
% Survival (H522; [7]): 41.0%
growth inhibition rate (OVSAHO): 37%
sensitivity of cell line (1321N1; [5]): apparently resistant
growth inhibition rate (1321N1; [6]): 10%
% Survival (1321N1; [7]): 89.7%
growth inhibition rate (HEC59; HEC59, 1 uM, 7 days, Trypan blue exclusion, vs DMSO): 31%
% Survival (HEC59; HEC59, percentage of viable cells): 68.8%
sensitivity of cell line (HEC59; Hec59, 0, 1 nM, 10 nM, 100 nM, 1 uM or 10 uM for 7 days): apparently resistant
activity inhibited (BTK [4]): more than 80%
